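Cells were grown in 96-well plates and exposed to each compound for 48 hours at five concentrations; endpoints were interpolated linearly between bracketing concentrations, or set to the highest concentration if not reached. Here, GI50 denotes the concentration required for 50% inhibition of growth.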 The source made the active and inactive calls. No stated cut-off is given here; in the data, active = GI50 up to about 1.1 µM and inactive = higher.
Experiments:
Experiment in all cases: NCI-60 cell line screen, 48 h
NCI-H226 = tested on: NCI-H226
MOLT-4 = tested on: MOLT-4
OVCAR-3 = tested on: OVCAR-3
HOP-62 = tested on: HOP-62
TK-10 = tested on: TK-10
SK-OV-3 = tested on: SK-OV-3
SW-620 = tested on: SW-620
SR = tested on: SR
SNB-75 = tested on: SNB-75
HCC 2998 = tested on: HCC 2998
SN12C = tested on: SN12C
RXF 393 = tested on: RXF 393
HL-60 = tested on: HL-60
HOP-92 = tested on: HOP-92
SF-268 = tested on: SF-268
OVCAR-4 = tested on: OVCAR-4
SF-295 = tested on: SF-295
CAKI-1 = tested on: CAKI-1
ACHN = tested on: ACHN

Measured: GI50

COCNC(=NC#N)NCOC
inactive: NCI-H226 > 100 µM | MOLT-4 > 100 µM | OVCAR-3 > 100 µM | HOP-62 > 100 µM | TK-10 > 100 µM | SK-OV-3 > 100 µM | SW-620 > 42.9 µM | SR 20.2 µM | SNB-75 > 100 µM | HCC 2998 > 100 µM | SN12C > 100 µM | RXF 393 > 42 µM | HL-60 > 68.9 µM | HOP-92 > 100 µM | SF-268 > 100 µM | OVCAR-4 > 100 µM | SF-295 > 100 µM | CAKI-1 > 100 µM | ACHN > 100 µM

COc1ccc([N+]2=NC(c3ccc([N+](=O)[O-])cc3)=NN(c3ccccc3)C2)cc1.[O-][Cl+3]([O-])([O-])[O-]
inactive: NCI-H226 > 100 µM | MOLT-4 31.8 µM | OVCAR-3 79.4 µM | HOP-62 > 100 µM | TK-10 > 100 µM | SW-620 > 100 µM | SR 44.2 µM | HCC 2998 > 100 µM | SN12C > 100 µM | RXF 393 67.9 µM | HL-60 22.3 µM | SF-268 > 100 µM | OVCAR-4 > 100 µM | SF-295 74.8 µM | ACHN 86.5 µM

CC(C)C1CC=NN1C(=O)OC(C)(C)C (configuration not stated)
inactive: NCI-H226 > 100 µM | MOLT-4 > 100 µM | OVCAR-3 > 100 µM | HOP-62 > 100 µM | TK-10 > 100 µM | SK-OV-3 > 100 µM | SW-620 > 100 µM | SR > 100 µM | SNB-75 > 100 µM | HCC 2998 > 100 µM | SN12C > 100 µM | RXF 393 > 100 µM | HL-60 > 100 µM | HOP-92 > 100 µM | SF-268 > 100 µM | SF-295 > 100 µM | CAKI-1 > 100 µM | ACHN > 100 µM

COc1cc(/C=C2/SC(c3ccccc3)N(c3cccc(NC(C)=O)c3)C2=O)cc(OC)c1OC (configuration not stated)
inactive: NCI-H226 62.5 µM | MOLT-4 31.3 µM | OVCAR-3 60.1 µM | HOP-62 81.8 µM | TK-10 > 100 µM | SK-OV-3 75 µM | SW-620 57.1 µM | SR 23.4 µM | HCC 2998 > 100 µM | SN12C 91.8 µM | RXF 393 24.8 µM | HL-60 33.7 µM | HOP-92 85.3 µM | SF-268 67.9 µM | OVCAR-4 66.2 µM | SF-295 58.5 µM | CAKI-1 > 100 µM | ACHN > 100 µM

CCOC(=O)c1c[nH]c2c(ccc3nn(C)nc32)c1=O
inactive: NCI-H226 > 100 µM | MOLT-4 > 100 µM | OVCAR-3 > 100 µM | HOP-62 > 100 µM | TK-10 > 100 µM | SK-OV-3 > 100 µM | SW-620 20.1 µM | SR 84.1 µM | SNB-75 > 100 µM | HCC 2998 > 100 µM | SN12C > 100 µM | RXF 393 30.4 µM | HL-60 57.3 µM | HOP-92 > 100 µM | SF-268 > 100 µM | SF-295 > 100 µM | CAKI-1 > 100 µM | ACHN > 100 µM

Oc1ccccc1/C=C/c1csnn1
inactive: NCI-H226 > 100 µM | MOLT-4 > 100 µM | OVCAR-3 > 100 µM | HOP-62 > 100 µM | TK-10 > 100 µM | SK-OV-3 > 100 µM | SW-620 > 65.9 µM | SR > 46.2 µM | SNB-75 > 100 µM | HCC 2998 > 100 µM | SN12C > 100 µM | RXF 393 > 100 µM | HL-60 39.4 µM | HOP-92 > 100 µM | SF-268 > 100 µM | OVCAR-4 > 100 µM | SF-295 > 100 µM | CAKI-1 > 100 µM | ACHN > 100 µM

O=NN(CCCl)C(=O)N[C@H]1CC[C@H](CC(=O)O)CC1
inactive: NCI-H226 > 100 µM | MOLT-4 11.9 µM | OVCAR-3 > 100 µM | HOP-62 > 94.6 µM | TK-10 > 100 µM | SK-OV-3 > 100 µM | SW-620 > 69.2 µM | SR 32.2 µM | SNB-75 50.4 µM | HCC 2998 > 100 µM | SN12C 66.8 µM | RXF 393 > 100 µM | HL-60 29.7 µM | HOP-92 > 100 µM | SF-268 18.5 µM | OVCAR-4 > 100 µM | SF-295 34.8 µM | CAKI-1 > 100 µM | ACHN > 100 µM

CN1c2ccccc2C(=O)NC12CCNCC2
inactive: NCI-H226 > 100 µM | MOLT-4 > 100 µM | HOP-62 > 100 µM | TK-10 > 100 µM | SK-OV-3 > 100 µM | SW-620 > 100 µM | SR > 100 µM | SNB-75 > 100 µM | HCC 2998 > 100 µM | RXF 393 > 100 µM | HL-60 > 100 µM | HOP-92 > 100 µM | SF-268 > 100 µM | OVCAR-4 > 100 µM | SF-295 > 100 µM | ACHN > 100 µM

Reference: ChEMBL document CHEMBL1201862, “PubChem BioAssay data set” (2004)
